The target in data set [1] is T1, human vanilloid receptor 1 (VR1) (Homo sapiens, UniProt Q8NER1).
T1 construct: expressed in transfected cells; host or cells: CHO K1 cells (ECACC), stably transfected
Put plainly: FLIPR Ca2+ functional study on human vanilloid receptor 1 (CHO K1 cells transfected with human VR1). The format is cell-based. The settings on record: for inhibition at 10 µM: CHO-K1, read-out: VR1 (human) (% inhibition compared to 10 μM CP); for inhibition at 10 µM / VR1 (human) (% inhibition compared to 10 μM CP): test compound 10 μM, suppression of Ca2+ current after 100 nM capsaicin, relative to maximum inhibition with 10 μM capsaicin (CP); for EC50: agonistic action. The procedure: Chinese hamster ovary cells (CHO K1 cells, European Collection of Cell Cultures (ECACC), England) are transfected stably with the human vanilloid receptor 1 (VR1) gene or the vanilloid receptor 1 (VR1) gene of the rat. For functional studies, these cells are plated out onto poly-D-lysine-coated black 96-well plates with a clear bottom (BD Biosciences, Heidelberg, Germany) in a density of 25 000 cells/well. The cells are incubated overnight at 37° C. and 5% CO2 in culture medium (Ham's Nutrient Mixture F12, Gibco Invitrogen GmbH, Karlsruhe, Germany) with 10% by volume of FBS (fetal bovine serum, Gibco Invitrogen GmbH, Karlsruhe, Germany), and 18 μg/ml of L-proline (Gibco Invitrogen GmbH, Karlsruhe, Germany). The next day, the cells are laden with 2 μM Fluo-4 and 0.01% by volume of Pluronic F127 (Molecular Probes Europe BV, Leiden, The Netherlands) in HBSS buffer (Hank's buffered saline solution, Gibco Invitrogen GmbH, Karlsruhe, Germany) at 37° C. for 30 min. Subsequently, the plates are washed 3 times with HBSS buffer and, after a further incubation of 15 minutes at room temperature, used for Ca^2+ measurement in the FLIPR assay. The Ca^2+-dependent fluorescence is measured before and after addition of substances λex=488 nm, λem=540 nm). The quantification is effected by measuring the highest fluorescence intensity (FC, fluorescence counts) over the time.
The FLIPR protocol consists of 2 substance additions. First, the compounds to be tested (10 μM) are pipetted onto the cells obtained according to Ia or Ib and the Ca^2+ current is compared with the control (capsaicin 10 μM). This gives rise to the result in % activation based on the Ca^2+ signal after addition of 10 μM capsaicin (CP). After incubation for 5 minutes, 100 nM capsaicin is applied and the current of Ca^2+ is likewise determined.
Desensitizing agonists and antagonists lead to a suppression in the Ca^2+ current. % inhibition is calculated compared to the maximum achievable inhibition with 10 μM capsaicin.
Triple determinations (n=3) are performed and they are repeated in at least 3 independent experiments (N=4).

Data set [2] concerns the target T2, vanilloid receptor 1 (VR1/TRPV1) of the rat (Rattus norvegicus, UniProt O35433).
T2 construct: host or cells: rat dorsal root ganglia primary cells (Ia) or CHO K1 cells stably transfected with the rat VR1 gene (Ib)
Put plainly: FLIPR Ca2+ functional study on rat vanilloid receptor 1 (rat dorsal root ganglia cells or CHO K1 cells transfected with rat VR1). Format: cell-based. The settings on record: for activation at 10 µM / inhibition at 10 µM: CHO-K1; for activation at 10 µM / inhibition at 10 µM / VR1 (rat) (% stimulation compared to 10 μM CP) / VR1 (rat) (% inhibition compared to 10 μM CP): test compound 10 μM; for activation at 10 µM / VR1 (rat) (% stimulation compared to 10 μM CP): % activation based on Ca2+ signal after 10 μM capsaicin (CP); for activation at 10 µM: read-out: VR1 (rat) (% stimulation compared to 10 μM CP); for inhibition at 10 µM / VR1 (rat) (% inhibition compared to 10 μM CP): suppression of Ca2+ current after 100 nM capsaicin, relative to maximum inhibition with 10 μM capsaicin (CP); for inhibition at 10 µM: read-out: VR1 (rat) (% inhibition compared to 10 μM CP); for EC50: agonistic action. How it is done: The agonistic or antagonistic action of the substances to be studied on the vanilloid receptor 1 (VR1/TRPV1) of the rat species can be determined with the following assay. In this assay, the Ca^2+ current through the receptor channel is quantified with the aid of a Ca^2+-sensitive dye (Fluo-4 type, Molecular Probes Europe BV, Leiden the Netherlands) in a fluorescent imaging plate reader (FLIPR, Molecular Devices, Sunnyvale, USA).
Complete medium: 50 ml HAMS F12 Nutrient Mixture (Gibco Invitrogen GmbH, Karlsruhe, Germany) with
10% by volume of FCS (fetal calf serum, Gibco Invitrogen GmbH, Karlsruhe, Germany, heat-inactivated);
2 mM L-glutamine (Sigma, Munich, Germany);
1% by weight of AA solution (antibiotic/antimycotic solution, PAA, Pasching, Austria) and 25 ng/ml of NGF medium (2.5 S, Gibco Invitrogen GmbH, Karlsruhe, Germany)
Cell culture plate: poly-D-lysine-coated, black 96-hole plates with a clear bottom (96 well black/clear plate, BD Biosciences, Heidelberg, Germany) are additionally coated with laminin (Gibco Invitrogen GmbH, Karlsruhe, Germany) by diluting laminin to a concentration of 100 μg/ml with PBS (Ca—Mg-free PBS, Gibco Invitrogen GmbH, Karlsruhe, Germany). Aliquots having a concentration of 100 μg/ml of laminin are withdrawn and stored at −20° C. The aliquots are diluted with PBS in a ratio of 1:10 to 10 μg/ml of laminin and in each case 50 μl of the solution are pipetted into a well of the cell culture plate. The cell culture plates are incubated at 37° C. for at least two hours, the supernatant solution is removed by suction and the wells are each washed twice with PBS. The coated cell culture plates are stored with supernatant PBS which is not removed until directly before the application of the cells.
The spinal column is removed from beheaded rats and placed directly into cold HBSS buffer (Hank's buffered saline solution, Gibco Invitrogen GmbH, Karlsruhe, Germany), i.e. placed in an ice bath, which has been admixed with 1% by volume of an AA solution (antibiotic/antimycotic solution, PAA, Pasching, Austria). The spinal column is severed longitudinally and removed from the spinal canal together with fasciae. Subsequently, the dorsal root ganglia (DRGs) are removed and in turn stored in cold HBSS buffer admixed with 1% by volume of an […]. The DRGs freed completely of blood residues and spinal nerves are in each case transferred to 500 μl of cold type 2 collagenase (PAA, Pasching, Austria) and incubated at 37° C. for 35 minutes. After addition of 2.5% by volume of trypsin (PAA, Pasching, Austria), incubation is continued at 37° C. for a further 10 minutes. After complete incubation, the enzyme solution is cautiously pipetted off and the remaining DRGs are each admixed with 500 μl of complete medium.
The DRGs are each suspended repeatedly, drawn through cannulas No. 1, No. 12 and No. 16 by means of a syringe and transferred to 50 ml Falcon tubes which are made up to 15 ml with complete medium. The contents of each Falcon tube are in each case filtered through a 70 μm Falcon filter insert and centrifuged at 1200 revolutions and room temperature for 10 minutes. The resulting pellet is in each case taken up in 250 μl of complete medium and the cell count is determined.
The number of cells in the suspension is adjusted to 3 times 10^5 per ml and in each case 150 μl of this suspension are added to one well of the cell culture plates coated as described above. In the incubator, the plates are left to stand at 37° C., 5% by volume of CO2 and 95% relative air humidity for two to three days.
Subsequently, the cells are laden with 2 μM Fluo-4 and 0.01% by volume of Pluronic F127 (Molecular Probes Europe BV, Leiden, the Netherlands) in HBSS buffer (Hank's buffered saline solution, Gibco Invitrogen GmbH, Karlsruhe, Germany) at 37° C. for 30 min, washed 3× with HBSS buffer and, after a further incubation of 15 minutes, used in the FLIPR assay at room temperature for Ca^2+ measurement. […]

The source of these data is patent US7973072B2, “Substituted benzo-condensed cyclohexanone derivatives and the use thereof for medicament production” (Gruenenthal GmbH, priority 2005, dated 2011).

T2 sequence (O35433 whole entry): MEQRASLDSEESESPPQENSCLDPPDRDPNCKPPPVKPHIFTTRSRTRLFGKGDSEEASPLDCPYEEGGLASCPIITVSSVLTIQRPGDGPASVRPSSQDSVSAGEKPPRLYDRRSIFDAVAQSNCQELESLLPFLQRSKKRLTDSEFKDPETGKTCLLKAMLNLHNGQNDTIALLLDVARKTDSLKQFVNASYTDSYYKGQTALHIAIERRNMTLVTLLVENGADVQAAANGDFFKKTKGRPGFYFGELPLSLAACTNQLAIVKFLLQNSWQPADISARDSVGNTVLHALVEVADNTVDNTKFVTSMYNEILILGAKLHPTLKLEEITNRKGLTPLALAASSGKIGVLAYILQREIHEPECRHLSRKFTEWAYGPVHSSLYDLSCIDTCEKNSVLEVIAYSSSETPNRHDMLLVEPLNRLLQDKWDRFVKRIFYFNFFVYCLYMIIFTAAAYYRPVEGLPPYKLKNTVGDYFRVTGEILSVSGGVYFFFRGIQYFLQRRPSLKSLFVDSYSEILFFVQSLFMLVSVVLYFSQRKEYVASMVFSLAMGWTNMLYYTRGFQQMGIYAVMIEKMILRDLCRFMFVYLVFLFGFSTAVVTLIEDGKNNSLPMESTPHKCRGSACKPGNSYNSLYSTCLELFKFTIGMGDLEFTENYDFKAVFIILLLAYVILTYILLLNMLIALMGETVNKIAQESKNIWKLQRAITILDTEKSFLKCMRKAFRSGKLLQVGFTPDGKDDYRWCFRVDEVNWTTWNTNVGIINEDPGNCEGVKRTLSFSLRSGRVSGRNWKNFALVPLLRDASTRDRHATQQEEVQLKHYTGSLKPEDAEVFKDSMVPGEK
T1 sequence (Q8NER1 whole entry): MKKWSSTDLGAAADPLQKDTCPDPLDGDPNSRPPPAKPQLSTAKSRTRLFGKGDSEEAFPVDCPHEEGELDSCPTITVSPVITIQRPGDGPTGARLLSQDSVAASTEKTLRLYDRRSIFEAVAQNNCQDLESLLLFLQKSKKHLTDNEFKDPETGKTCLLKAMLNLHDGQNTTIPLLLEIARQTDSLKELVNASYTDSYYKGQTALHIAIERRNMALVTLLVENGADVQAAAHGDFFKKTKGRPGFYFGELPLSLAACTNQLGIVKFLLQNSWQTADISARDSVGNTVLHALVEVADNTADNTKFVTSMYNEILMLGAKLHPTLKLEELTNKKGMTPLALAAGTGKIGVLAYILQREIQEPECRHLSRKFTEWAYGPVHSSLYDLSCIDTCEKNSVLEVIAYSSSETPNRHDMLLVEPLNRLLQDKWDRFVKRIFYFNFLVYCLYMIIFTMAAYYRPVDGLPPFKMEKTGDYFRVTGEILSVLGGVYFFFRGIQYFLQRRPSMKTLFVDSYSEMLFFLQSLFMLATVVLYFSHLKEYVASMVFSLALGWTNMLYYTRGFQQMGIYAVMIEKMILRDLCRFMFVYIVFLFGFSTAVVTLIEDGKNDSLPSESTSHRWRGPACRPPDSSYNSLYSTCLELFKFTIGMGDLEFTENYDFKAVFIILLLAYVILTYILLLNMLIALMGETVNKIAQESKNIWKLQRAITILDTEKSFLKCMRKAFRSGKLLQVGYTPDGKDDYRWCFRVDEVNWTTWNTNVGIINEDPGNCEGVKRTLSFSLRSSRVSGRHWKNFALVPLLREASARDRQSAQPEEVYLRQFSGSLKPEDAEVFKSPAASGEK

Consider `Cc1cccc2c1SCC(CO)(COS(=O)(=O)c1ccc(C(C)(C)C)cc1)C2=O` (stereo not shown) [Example Compound 13, 4-tert-butylbenzenesulfonic acid 3-hydroxymethyl-8-methyl-4-oxo-thiochroman-3-ylmethyl ester], for which, in data set [1], the inhibition at 10 µM stood at 23.8%. Besides, in data set [2], the activation at 10 µM stood at 0.81% and the inhibition at 10 µM came out at 40.3%.
As for `Cc1cccc2c1C(=O)C(COC(=O)Nc1ccccc1)(COC(=O)Nc1ccccc1)CS2` [Example Compound 40, (5-methyl-4-oxothiochroman-3,3-diyl)bis(methylene)bis(phenylcarbamate)], the inhibition at 10 µM in data set [1] is 96.6%; in data set [2], 106%. Besides, the EC50 in data set [1] (FLIPR) was determined as 1.4 µM; in data set [2] (FLIPR), 4.1 µM. Besides, the activation at 10 µM in data set [2] was 67%.
The matching figures for `O=C(Nc1ccccc1)OCC1(COC(=O)Nc2ccccc2)CSc2ccccc2C1=O` [Example Compound 41, 3,3-bis(phenylcarbamoyloxymethyl)thiochroman-4-one]: 95%, 14%, 0.995 µM, 2.4 µM and 38%.
In turn, `COc1ccc(NC(=O)OCC2(COC(=O)Nc3ccc(OC)cc3)CSc3ccccc3C2=O)cc1` [Example Compound 42, 3,3-bis(4-methoxyphenylcarbamoyloxymethyl)thiochroman-4-one] yielded a melting point of 58 to 63 °C. For the same compound, the inhibition at 10 µM in data set [1] is 73.2%. This compound registered an EC50 in data set [1] (FLIPR) of 3.05 µM. Further, in data set [2], the activation at 10 µM was found to be 37.8% and the inhibition at 10 µM was 41.1%. This compound came in with an EC50 in data set [2] (FLIPR) of 9.95 µM.
Turning to `Cc1cccc2c1C(=O)C(COC(=O)Nc1ccccc1)(COC(=O)Nc1ccccc1)CS2(=O)=O` [Example Compound 46, 3,3-bis(phenylcarbamoyloxymethyl)-5-methyl-1,1-dioxo-1λ^6-thiochroman-4-one], the results for the inhibition at 10 µM in data set [1] and in data set [2] were 38.5% and 96.8%, respectively. Moreover, the values for the concentration giving a half-maximal response (EC50) in data set [1] (FLIPR) and in data set [2] (FLIPR) were 6.4 µM and 13.8 µM, respectively. For the same compound, the activation at 10 µM in data set [2] is 25%.
The compound `CC(C)(C)c1ccccc1NC(=O)OCC1(COC(=O)Nc2ccccc2C(C)(C)C)CSc2ccccc2C1=O` [Example Compound 51, 3,3-bis(2-tert-butylphenylcarbamoyloxymethyl)thiochroman-4-one] gave a melting point of 62 to 68 °C.
Still for that read-out and setting: the same measure for `O=C(Nc1ccc(C(F)(F)F)cc1)OCC1(COC(=O)Nc2ccc(C(F)(F)F)cc2)CSc2ccccc2C1=O` [Example Compound 52, 3,3-bis(4-trifluoromethylphenylcarbamoyloxymethyl)thiochroman-4-one]: 76 to 82 °C.
`O=C(Nc1cccc(C(F)(F)F)c1)OCC1(COC(=O)Nc2cccc(C(F)(F)F)c2)CSc2ccccc2C1=O` [Example Compound 54, 3,3-bis(3-trifluoromethylphenylcarbamoyloxymethyl)thiochroman-4-one] yielded a melting point of 58 to 63 °C.
Regarding “(6-fluoro-4-oxothiochroman-3,3-diyl)bis(methylene)bis(3-(trifluoromethyl)phenylcarbamate) [Example Compound 30]”, the “VR1 (human) (% inhibition compared to 10 μM CP)” value in data set [1] turned out to be 80.26%. Also, in data set [2], the “VR1 (rat) (% stimulation compared to 10 μM CP)” value came out at 94.65% and the “VR1 (rat) (% inhibition compared to 10 μM CP)” value was 44.38%.
The matching figures for “(7,8-dichloro-4-oxothiochroman-3,3-diyl)bis(methylene)bis(2-(trifluoromethyl)phenylcarbamate) [Example Compound 31]”: 83.36%, 22.05% and 38.68%.
On to “(7,8-dichloro-4-oxothiochroman-3,3-diyl)bis(methylene)bis(3-(trifluoromethyl)phenylcarbamate) [Example Compound 29]”, for which, in data set [1], the “VR1 (human) (% inhibition compared to 10 μM CP)” value stood at 91.55%. Further, in data set [2], the “VR1 (rat) (% stimulation compared to 10 μM CP)” value came out at 88.01% and the “VR1 (rat) (% inhibition compared to 10 μM CP)” value was determined as 100.80%.
Consider “(7-methyl-4-oxothiochroman-3,3-diyl)bis(methylene)bis(phenylcarbamate) [Example Compound 39]”, for which the EC50 was found to be 0.99 µM in data set [1] (FLIPR) and 5.86 µM in data set [2] (FLIPR). The “VR1 (human) (% inhibition compared to 10 μM CP)” value in data set [1] is 88.33%. Besides, the “VR1 (rat) (% stimulation compared to 10 μM CP)” value in data set [2] is 109.36%. Besides, the “VR1 (rat) (% inhibition compared to 10 μM CP)” value in data set [2] came to 119.74%.
Regarding “(8-chloro-4-oxothiochroman-3,3-diyl)bis(methylene)bis(2-(trifluoromethyl)phenylcarbamate) [Example Compound 14]”, the “VR1 (human) (% inhibition compared to 10 μM CP)” value in data set [1] turned out to be 69.64%. Also, in data set [2], the “VR1 (rat) (% stimulation compared to 10 μM CP)” value came out at 17.64% and the “VR1 (rat) (% inhibition compared to 10 μM CP)” value is listed as 61.99%.
For the compound “(8-chloro-4-oxothiochroman-3,3-diyl)bis(methylene)bis(3-(trifluoromethyl)phenylcarbamate) [Example Compound 20]”, half-maximal inhibition in data set [1] (FLIPR, antagonistic action) (IC50) required 5.78 µM. The “VR1 (human) (% inhibition compared to 10 μM CP)” value in data set [1] is on record as 88.98%. In data set [2] (FLIPR, antagonistic action), this compound displayed a half-maximal inhibitory concentration (IC50) of 6.44 µM. Also, in data set [2], the “VR1 (rat) (% stimulation compared to 10 μM CP)” value worked out at 47.96% and the “VR1 (rat) (% inhibition compared to 10 μM CP)” value is on record as 107.78%.
